Each structure is given as a SMILES string.

For the assay, the target named is Hypoxia inducible factors; HIF-1-alpha, HIF-2-alpha (Homo sapiens, UniProt Q16665+Q99814). In words: Inhibition of hypoxia-induced HIF1 transcriptional activity in human HeLa cells measured after 12 hrs by luciferase reporter gene assay. It counts as cell-based.
As to `OCc1ccc(-c2nc(Cc3ccccc3)c3ccccn23)o1`, the IC50 came out at 56 µM.

Take `OCc1ccc(-c2nc(-c3ccccc3CO)c3ccccn23)o1`: the IC50 was 6.5 µM.

Compound `OCc1ccc(-c2nc(-c3ccccc3CO)c3ccccn23)s1` gave an IC50 of 9.4 µM.

Regarding `OCc1ccc(-c2nc(-c3cc(C(F)(F)F)cc(C(F)(F)F)c3)c3ccccn23)o1`, the IC50 came out at 25 µM.

Regarding `OCc1ccc(-c2nc(-c3ccc(C(F)(F)F)cc3)c3ccccn23)o1`, the IC50 stood at 17 µM.

`COc1ccc(-c2nc(-c3ccc(CO)o3)n3ccccc23)cc1` displayed an IC50 of 61 µM.

Regarding `N#Cc1ccc(-c2nc(-c3ccc(CO)o3)n3ccccc23)cc1`, the IC50 was found to be 7.4 µM.

Regarding `OCc1ccc(-c2nc(-c3ccccc3)c3ccccn23)s1`, the IC50 worked out at 3.7 µM.

Consider `OCc1ccc(-c2nc(-c3ccncc3)c3ccccn23)s1`, for which the IC50 was 9.1 µM.

In the case of `COc1ccccc1-c1nc(-c2ccc(CO)o2)n2ccccc12`, the IC50 came to 75 µM.

`Cc1ccc(-c2nc(-c3ccc(CO)o3)n3ccccc23)cc1` gave an IC50 of 39 µM.

Compound `OCc1ccc(-c2nc(-c3ccccc3)c3ccccn23)o1` showed an IC50 of 70 µM.
